Data on 14 compounds can be found in PubChem BioAssay (NCI).

By TGI is commonly meant the concentration giving total growth inhibition. A higher TGI goes with less potent growth arrest. As usually defined, the GI50 is the concentration at which growth is held to half of that of the control.

Some test systems named below: OVCAR-4 ovarian; COLO 205 colon; HL-60(TB) leukemia; HOP-92 NSCLC; A498 renal; OVCAR-8 ovarian; MOLT-4 leukemia; HOP-62 NSCLC; HCT-15 colon; SN12C renal.
Holding throughout (assay): DTP human tumour cell line panel, 48 h

Several values for one entry are separate records, joined by “and”; a condition that tells them apart may be missing. Equal entries are not always repeated.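 Growth conditions: 96-well plates. Treatment: test compound, 48 hours, 5 concentrations. Analysis: linear interpolation between bracketing concentrations; unreached endpoints set to highest concentration. GI50: concentration for 50% inhibition of growth. TGI is the concentration that stops growth completely.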 Some results are limits rather than exact numbers.

On to `O=C1Oc2ccccc2C1C/C(=N\Nc1ccccc1)c1ccccc1O` (configuration not stated), for which the TGI was greater than 100 µM in the test with OVCAR-4 ovarian; 32.8 µM with COLO 205 colon; greater than 100 µM with HL-60(TB) leukemia; 78.8 µM in the test on HOP-92 NSCLC; greater than 100 µM in the test with A498 renal; greater than 100 µM in the test with OVCAR-8 ovarian. The TGI is 78.7 µM with MOLT-4 leukemia, greater than 100 µM in the test on HOP-62 NSCLC, greater than 100 µM in the test with HCT-15 colon and greater than 100 µM in the test with SN12C renal.

Consider `CC(C)C1CNC(=O)C2(C=NC(C(C)C)CNC(=O)C3(C=N1)CCCO3)CCCO2` (configuration not stated), for which the concentration for total growth inhibition (TGI) in the test with OVCAR-4 ovarian, in the test with COLO 205 colon, in the test on HL-60(TB) leukemia, in the test with HOP-92 NSCLC, with A498 renal and in the test with OVCAR-8 ovarian was greater than 10 µM throughout. The TGI in the test with MOLT-4 leukemia, in the test with HOP-62 NSCLC, in the test on HCT-15 colon and with SN12C renal was greater than 10 µM in each case.

Regarding `CC(C)(C)N=CN1C=Cc2nc3ccccc3cc2C1`, the TGI with OVCAR-4 ovarian, with COLO 205 colon, with HL-60(TB) leukemia, with HOP-92 NSCLC, in the test on A498 renal and in the test with OVCAR-8 ovarian was greater than 100 µM throughout. For the same compound, the TGI in the test with MOLT-4 leukemia, in the test on HOP-62 NSCLC, in the test on HCT-15 colon and in the test with SN12C renal was greater than 100 µM throughout.

On to `Cc1c(C)c2c(c(N)c1C#N)C(=O)N(O)C2=O`, for which the TGI in the test with OVCAR-4 ovarian, in the test on COLO 205 colon, in the test with HL-60(TB) leukemia, in the test on HOP-92 NSCLC, in the test with A498 renal and with OVCAR-8 ovarian was greater than 100 µM in each case. Moreover, the concentration for total growth inhibition (TGI) in the test with MOLT-4 leukemia, with HCT-15 colon and in the test on SN12C renal was greater than 100 µM throughout.

On to `CCOC(=O)C(NC(=O)OCc1ccccc1)C(=O)O` (configuration not stated), for which the TGI in the test on OVCAR-4 ovarian, in the test on COLO 205 colon, in the test with HL-60(TB) leukemia, in the test with HOP-92 NSCLC, in the test on A498 renal and in the test on OVCAR-8 ovarian was greater than 100 µM each time. The TGI in the test on MOLT-4 leukemia, in the test with HOP-62 NSCLC, in the test on HCT-15 colon and with SN12C renal was greater than 100 µM throughout.

Regarding `CC1(C)C2CCC3CC(CCC#N)CCC3C21C#N` (configuration not stated), the TGI in the test with OVCAR-4 ovarian, with COLO 205 colon, with HL-60(TB) leukemia, with HOP-92 NSCLC, in the test with A498 renal and in the test with OVCAR-8 ovarian was greater than 100 µM each time. The TGI in the test with MOLT-4 leukemia, with HOP-62 NSCLC, in the test on HCT-15 colon and in the test with SN12C renal was greater than 100 µM each time.

In the case of `Cc1ccc(S(=O)c2cccs2)cc1` (configuration not stated), the TGI in the test with COLO 205 colon, in the test on HL-60(TB) leukemia, in the test with HOP-92 NSCLC, in the test with A498 renal, in the test with OVCAR-8 ovarian and in the test with MOLT-4 leukemia was greater than 100 µM throughout. The TGI with HOP-62 NSCLC, in the test with HCT-15 colon and in the test with SN12C renal was greater than 100 µM each time.

For `COC(=O)C1(NC(=O)C(Cc2ccccc2)N(C(=O)OC(C)(C)C)C(=O)OC(C)(C)C)CCCC1` (configuration not stated), the TGI is greater than 100 µM with COLO 205 colon; 62.1 µM with HL-60(TB) leukemia; greater than 100 µM in the test with HOP-92 NSCLC; greater than 100 µM in the test on A498 renal; greater than 100 µM in the test on OVCAR-8 ovarian; greater than 100 µM in the test with MOLT-4 leukemia. Also, the TGI in the test on HOP-62 NSCLC, with HCT-15 colon and in the test with SN12C renal was greater than 100 µM each time.

As for `CC(CSC(=N)N)C(N)=O` (configuration not stated), the TGI in the test on OVCAR-4 ovarian, in the test on COLO 205 colon, with HL-60(TB) leukemia, in the test with HOP-92 NSCLC, with A498 renal and in the test with OVCAR-8 ovarian was greater than 100 µM each time. Moreover, the total growth inhibition concentration (TGI) with HOP-62 NSCLC, in the test with HCT-15 colon and in the test on SN12C renal was greater than 100 µM throughout.

Turning to `O[C@]12C=C(c3nccc4c3[nH]c3ccccc34)[C@@H]3CCN(CCCC/C=C\CC1)C[C@@]31CC3/C=C\CCCCN3[C@H]12` (some centres not stated), the TGI with OVCAR-4 ovarian was greater than 25.1 µM; in the test with COLO 205 colon it was 1.13 µM; in the test on HL-60(TB) leukemia, 1.08 µM; in the test with HOP-92 NSCLC, 0.741 µM; with A498 renal, 2.83 µM; in the test on OVCAR-8 ovarian, 1.51 µM. The total growth inhibition concentration (TGI) was found to be 0.525 µM with HOP-62 NSCLC, 1.02 µM in the test on HCT-15 colon and 2.84 µM in the test with SN12C renal.

Regarding `O=C/C(=C1/C=Cc2cc([N+](=O)[O-])ccc2S1)c1ccccc1`, the TGI in the test with OVCAR-4 ovarian, in the test on COLO 205 colon, in the test on HL-60(TB) leukemia, in the test with HOP-92 NSCLC, in the test with A498 renal and in the test on MOLT-4 leukemia was greater than 100 µM each time. For the same compound, the concentration for total growth inhibition (TGI) with HOP-62 NSCLC, in the test with HCT-15 colon and in the test with SN12C renal was greater than 100 µM each time.

As for `COc1ccc(C2c3cc4c(cc3OC(NNc3ccccc3)C2C)OCO4)cc1` (configuration not stated), the TGI was 20.5 µM with COLO 205 colon; 20.8 µM with HL-60(TB) leukemia; 67.9 µM in the test with HOP-92 NSCLC; 76.9 µM in the test on A498 renal; 63.5 µM in the test on OVCAR-8 ovarian; greater than 100 µM in the test on MOLT-4 leukemia. Besides, the TGI in the test on HOP-62 NSCLC was 20.2 µM; with HCT-15 colon it was greater than 100 µM; in the test on SN12C renal it was 50.8 µM.

`CCOC(=O)c1c[nH]c(C(=O)OCC)c1-c1cccn1-c1ccccc1`: the TGI with COLO 205 colon was 38.5 µM; with HL-60(TB) leukemia it was 54.4 µM; with HOP-92 NSCLC, greater than 100 µM; in the test on A498 renal it was 86.2 µM; with OVCAR-8 ovarian, 59.6 µM; in the test on MOLT-4 leukemia, 53 µM. Moreover, the TGI in the test on HOP-62 NSCLC is 50 µM; with HCT-15 colon it was greater than 100 µM; in the test with SN12C renal, 69.2 µM.

With `CC1=CC(=O)CC2(C)CCC(C(C)CC(=O)CC(C)C)CC12OO` (configuration not stated), the TGI is 29.8 µM and > 100 µM in the test on OVCAR-4 ovarian; 27.8 µM and 34.8 µM in the test on COLO 205 colon; 74.7 µM and 17.4 µM with HL-60(TB) leukemia; 31 µM and 37 µM in the test on HOP-92 NSCLC; 31.5 µM and 49.4 µM in the test with A498 renal; 90.2 µM and 45.4 µM with OVCAR-8 ovarian. Also, the TGI was 40.2 µM and 35.3 µM with MOLT-4 leukemia; 30.1 µM and > 100 µM with HCT-15 colon; 38 µM and 33.8 µM with SN12C renal. The GI50 with HCT-15 colon was 16.5 µM and 35.3 µM.
